Laboratory results from patent US8735402B2, “Cycloalkyloxycarboxylic acid derivatives” (Sanofi, priority 2011, dated 2014).

Target: T1, human Edg-1 receptor (Homo sapiens, UniProt P21453)
T1 construct: FLAG (N); expressed in transfected cells; membrane preparation
Experiment: GTP-γ-S assay using human Edg-1 receptors (scintillation proximity assay, CHO Flp-In cell membrane preparation)
Type: biochemical
Details: test compound 10 μM; 10 μM S1P regarded as 100% activation; background-corrected; triplicate
From the text: Determination of the Pharmacological Activity A) GTP-γ-S Assay Using Human Edg-1 Receptors In order to determine the Edg-1 receptor activation by the compounds of the invention, a GTP-γ-S ((GTP-γ-S=guanosine 5′-[thio]triphosphate) assay for G-protein coupled receptor binding based on the scintillation proximity assay principle was used, employing a cell membrane preparation from a CHO Flp-In cell line which constitutively overexpresses the human Edg-1 receptor. The Flp-In™ expression system (Invitrogen/Life Technologies™ cat. no. K6010-01) allows the generation of stable mammalian cell lines into which the gene of interest has been integrated through […] at a specific genomic location called Flp Recombination Target (FRT) site by means of a Flp recombinase encoded by the pOG44 expression plasmid. […] The EDG-1 membrane preparation obtained in (b) was initially used in a commercial scintillation proximity assay kit (Amersham/GE Healthcare, cat. no. RPNQ0210) to quantify the receptor activation. Here, the ligand-induced binding of ^35S-radiolabeled GTP-γ-S to the receptor-containing membrane causes the emission of light in the scintillation beads attached to the membrane preparation, which allows quantification of the in vitro activity of the Edg-1-agonistic compound. […]

T1 sequence (P21453 whole entry): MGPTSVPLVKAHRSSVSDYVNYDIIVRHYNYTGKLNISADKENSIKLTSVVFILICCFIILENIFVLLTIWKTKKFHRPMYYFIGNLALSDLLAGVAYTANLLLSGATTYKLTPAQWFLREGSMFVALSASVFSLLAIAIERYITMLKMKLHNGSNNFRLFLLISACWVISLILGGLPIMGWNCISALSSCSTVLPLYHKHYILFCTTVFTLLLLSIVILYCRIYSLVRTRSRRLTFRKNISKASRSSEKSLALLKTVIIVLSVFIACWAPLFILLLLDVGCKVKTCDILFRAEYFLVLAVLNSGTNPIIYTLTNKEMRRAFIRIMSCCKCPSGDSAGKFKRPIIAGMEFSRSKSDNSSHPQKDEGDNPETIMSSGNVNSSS

Edg-1 receptor activation by example compounds at 10 μM in percent of the activation by 10 μM S1P (% activation) [%]	SMILES
116	Cc1cc(-c2nc3cnc(Oc4cccc(Cl)c4)nc3o2)cc(C)c1OC1CC(C(=O)O)C1 (centres unmarked) [Example 1, 3-{4-[5-(3-Chlorophenoxy)oxazolo[5,4-d]pyrimidin-2-yl]-2,6-dimethylphenoxy}cyclobutanecarboxylic acid]
83	Cc1cc(-c2nc3cnc(Oc4ccccc4F)nc3o2)cc(C)c1OC1CC(C(=O)O)C1 (centres unmarked) [Example 2, 3-{4-[5-(2-Fluorophenoxy)oxazolo[5,4-d]pyrimidin-2-yl]-2,6-dimethylphenoxy}cyclobutanecarboxylic acid]
